Source: ChEMBL document CHEMBL1141545, “Synthesis and biological evaluation of 3,5-diaminoindazoles as cyclin-dependent kinase inhibitors” (Bioorg Med Chem Lett, 2008)

Assays:
[1] = biological target: Cyclin-dependent kinase 2 (Homo sapiens, UniProt P24941); experiment: Inhibition of CDK2
[2] = biological target: Cyclin-dependent kinase 4 (Homo sapiens, UniProt P11802); experiment: Inhibition of CDK4
[3] = biological target: Cyclin-dependent kinase 1 (Homo sapiens, UniProt P06493); experiment: Inhibition of CDK1
Sequence of Cyclin-dependent kinase 1 (P06493 whole entry): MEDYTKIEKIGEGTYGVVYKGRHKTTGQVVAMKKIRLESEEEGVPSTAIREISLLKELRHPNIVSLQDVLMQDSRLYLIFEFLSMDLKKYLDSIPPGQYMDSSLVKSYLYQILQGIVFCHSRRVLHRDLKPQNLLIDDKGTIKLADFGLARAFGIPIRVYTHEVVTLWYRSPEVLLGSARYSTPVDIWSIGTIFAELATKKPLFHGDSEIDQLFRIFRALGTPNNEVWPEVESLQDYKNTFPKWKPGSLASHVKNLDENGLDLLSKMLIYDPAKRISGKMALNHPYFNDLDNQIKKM

[4] = Selectivity for CDK2 over CDK1
EJ = experiment: Antiproliferative activity against human EJ cells after 48 hrs; format: functional, cell-based
A549 = experiment: Antiproliferative activity against human A549 cells after 48 hrs; format: functional, cell-based; conditions: A549, 48 h
SW-620 = experiment: Antiproliferative activity against human SW620 cells after 48 hrs; format: functional, cell-based; conditions: SW-620, 48 h
HCT-116 = experiment: cells; conditions: Homo sapiens, HCT-116, 48 h
Description: Antiproliferative activity against human HCT116 cells after 48 hrs

Sequence of Cyclin-dependent kinase 4 (P11802 whole entry): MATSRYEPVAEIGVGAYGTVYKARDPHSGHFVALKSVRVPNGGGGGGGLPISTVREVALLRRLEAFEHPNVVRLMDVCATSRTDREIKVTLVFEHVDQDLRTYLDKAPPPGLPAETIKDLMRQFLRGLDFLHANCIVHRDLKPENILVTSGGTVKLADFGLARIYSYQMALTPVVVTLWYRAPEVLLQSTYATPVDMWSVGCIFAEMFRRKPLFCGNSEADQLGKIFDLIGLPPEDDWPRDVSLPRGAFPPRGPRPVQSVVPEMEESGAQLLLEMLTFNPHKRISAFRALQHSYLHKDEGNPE

Structure (SMILES) | IC50 [1] | IC50 [2] | IC50 [3] | Ratio IC50 [4] | IC50 (EJ) | IC50 (A549) | IC50 (SW-620) | IC50 (HCT-116)
O=C(Cc1cccc(Br)c1)Nc1n[nH]c2ccc(N3CCCS3(=O)=O)cc12 | 7 nM | 1800 nM | 47 nM | < 10 |  |  |  | 
O=C(Cc1ccc(-c2ccccc2)cc1)Nc1n[nH]c2ccc(N3CCCS3(=O)=O)cc12 | 14 nM | 2200 nM | 42 nM |  | 52 nM | 55 nM | 40 nM | 180 nM
O=C(Cc1ccccc1)Nc1n[nH]c2ccc(N3C(=O)CNC3=O)cc12 | 2000 nM |  |  |  |  |  |  | 
O=C(Cc1ccccc1)Nc1n[nH]c2ccc(N3CCCCC3=O)cc12 | 7100 nM |  |  |  |  |  |  | 
O=C(Cc1ccccc1)Nc1n[nH]c2ccc(N3CCCS3(=O)=O)cc12 | 36 nM | 3700 nM |  |  | 3600 nM |  | 2200 nM | 4600 nM
CS(=O)(=O)c1ccc(CC(=O)Nc2n[nH]c3ccc(N4CCCS4(=O)=O)cc23)cc1 | 22 nM | 1400 nM | 200 nM |  | 35000 nM |  |  | 48000 nM
O=C(Cc1ccccc1)Nc1n[nH]c2ccc([N+](=O)[O-])cc12 | 2000 nM |  |  |  |  |  |  | 
O=C(Cc1ccc2ccccc2c1)Nc1n[nH]c2ccc(N3CCCS3(=O)=O)cc12 | 9 nM | 1600 nM | 40 nM | < 10 | 120 nM | 90 nM | 80 nM | 310 nM
CCCCN(CCCC)c1ccc2[nH]nc(NC(=O)Cc3ccccc3)c2c1 | > 100000 nM |  |  |  |  |  |  | 
O=C(Cc1ccccc1)Nc1n[nH]c2ccc(N3CCCC3=O)cc12 | 170 nM |  |  |  |  |  |  | 
O=C(Cc1cccc2ccccc12)Nc1n[nH]c2ccc(N3CCCS3(=O)=O)cc12 | 20 nM | 3000 nM | 67 nM | < 10 | 1300 nM | 1400 nM | 930 nM | 2300 nM
O=C(Cc1ccc(-c2ccncc2)cc1)Nc1n[nH]c2ccc(N3CCCS3(=O)=O)cc12 | 30 nM | 1330 nM | 60 nM | < 10 | 1050 nM | 1400 nM |  | 2500 nM
Cc1cccc(CC(=O)Nc2n[nH]c3ccc(N4CCCS4(=O)=O)cc23)c1 | 10 nM | 4000 nM | 50 nM | < 10 |  |  |  | 
O=C(Cc1ccc(Br)cc1)Nc1n[nH]c2ccc(N3CCCS3(=O)=O)cc12 | 7 nM | 2000 nM | 22 nM | < 10 | 1570 nM | 3870 nM | 2000 nM | 1400 nM
O=C(Cc1ccc(N2CCCCC2)cc1)Nc1n[nH]c2ccc(N3CCCS3(=O)=O)cc12 |  | 750 nM | 150 nM |  | 980 nM | 1100 nM |  | 1200 nM
Nc1ccc(CC(=O)Nc2n[nH]c3ccc(N4CCCS4(=O)=O)cc23)cc1 | 16 nM | 2200 nM | 60 nM | < 10 |  |  |  | 
O=C(Cc1ccc(Cl)cc1)Nc1n[nH]c2ccc(N3CCCS3(=O)=O)cc12 | 10 nM | 2000 nM | 12 nM |  | 930 nM | 1500 nM | 930 nM | 1230 nM
CCNc1ccc2[nH]nc(NC(=O)Cc3ccccc3)c2c1 | 500 nM |  |  |  |  |  |  | 
CCN(CC)c1ccc(CC(=O)Nc2n[nH]c3ccc(N4CCCS4(=O)=O)cc23)cc1 | 40 nM | > 1000 nM | 60 nM |  | 55 nM | 50 nM |  | 220 nM
CCN(CC)c1ccc2[nH]nc(NC(=O)Cc3ccccc3)c2c1 | 200 nM |  |  |  |  |  |  | 
O=C(Cc1cccc(Cl)c1)Nc1n[nH]c2ccc(N3CCCS3(=O)=O)cc12 | 10 nM | 1050 nM | 34 nM | < 10 |  |  |  | 
CCCN(CCC)c1ccc2[nH]nc(NC(=O)Cc3ccccc3)c2c1 | 1800 nM |  |  |  |  |  |  | 
O=C(Cc1ccccc1Cl)Nc1n[nH]c2ccc(N3CCCS3(=O)=O)cc12 | 24 nM | 890 nM | 80 nM | < 10 |  |  |  | 
O=C(Cc1ccc(F)cc1)Nc1n[nH]c2ccc(N3CCCS3(=O)=O)cc12 | 20 nM | 3000 nM | 50 nM | < 10 |  |  |  | 
O=C(Cc1cccc(F)c1)Nc1n[nH]c2ccc(N3CCCS3(=O)=O)cc12 | 10 nM | 710 nM | 30 nM | < 10 |  |  |  | 
Cc1ccc(CC(=O)Nc2n[nH]c3ccc(N4CCCS4(=O)=O)cc23)cc1 | 7 nM | 1800 nM | 40 nM | < 10 | 1670 nM | 2570 nM | 1560 nM | 1770 nM
CN(C)c1ccc(CC(=O)Nc2n[nH]c3ccc(N4CCCS4(=O)=O)cc23)cc1 | 10 nM | 210 nM | 28 nM | < 10 |  | 350 nM |  | 830 nM
CSc1ccc(CC(=O)Nc2n[nH]c3ccc(N4CCCS4(=O)=O)cc23)cc1 | 10 nM | 1300 nM | 40 nM |  | 280 nM | 2470 nM | 150 nM | 820 nM
O=C(Cc1ccc(O)cc1)Nc1n[nH]c2ccc(N3CCCS3(=O)=O)cc12 | 9 nM | 1750 nM | 28 nM |  | 5200 nM |  | 3830 nM | 6530 nM
